# Reference: ChEMBL document CHEMBL1629647, “Preclinical evaluation of GS-9160, a novel inhibitor of human immunodeficiency virus type 1 integrase” (Antimicrob Agents Chemother, 2009)
# Legend:
# [1] = test system: Human immunodeficiency virus 1; assay: Selectivity ratio of EC50 for antiviral activity against EFV-resistant HIV1 selected after 3 passages to EC50 for antiviral activity against wild-type HIV1 3B; format: functional
# [2] = test system: Human immunodeficiency virus 1; assay: Selectivity ratio of EC50 for antiviral activity against GS-9160-resistant HIV1 selected after 9 passages to EC50 for antiviral activity against wild-type HIV1 3B; format: functional
# [3] = test system: Human immunodeficiency virus 1; assay: Antiviral activity against HIV1 infected in SupT1 cells assessed as accumulation of integrated junction products after 48 hrs by Alu-PCR assay; format: functional, organism-based; conditions: Human immunodeficiency virus 1, SUP-T1, 48 h
# [4] = test system: Human immunodeficiency virus 1; assay: Selectivity ratio of EC50 for antiviral activity against GS-9160-resistant HIV1 selected after 6 passages to EC50 for antiviral activity against wild-type HIV1 3B; format: functional
# [5] = Cytotoxicity against human SupT1 cells infected with HIV1 3B; format: cell-based, SUP-T1; conditions: SupT1 cells infected with HIV-1 3B
# [6] = test system: Human immunodeficiency virus 1; assay: Antiviral activity against HIV1 infected in SupT1 cells assessed as accumulation of late RT products after 12 hrs; format: functional, organism-based; conditions: Human immunodeficiency virus 1, SUP-T1, 12 h
# [7] = test system: Human immunodeficiency virus 1; assay: Selectivity ratio of EC50 for antiviral activity against 3TC-resistant HIV1 selected after 8 passages to EC50 for antiviral activity against wild-type HIV1 3B; format: functional
# [8] = test system: Human immunodeficiency virus 1; assay: Selectivity ratio of EC50 for antiviral activity against APV-resistant HIV1 selected after 4 passages to EC50 for antiviral activity against wild-type HIV1 3B; format: functional
# [9] = test system: Human immunodeficiency virus 1; assay: Selectivity ratio of EC50 for antiviral activity against EFV-resistant HIV1 selected after 7 passages to EC50 for antiviral activity against wild-type HIV1 3B; format: functional
# [10] = test system: Human immunodeficiency virus 1; assay: Selectivity ratio of EC50 for antiviral activity against APV-resistant HIV1 selected after 2 passages to EC50 for antiviral activity against wild-type HIV1 3B; format: functional
# [11] = test system: Human immunodeficiency virus 1; assay: Selectivity ratio of EC50 for antiviral activity against GS-9160-resistant HIV1 selected after 5 passages to EC50 for antiviral activity against wild-type HIV1 3B; format: functional
# [12] = test system: Human immunodeficiency virus 1; assay: Selectivity ratio of EC50 for antiviral activity against 3TC-resistant HIV1 selected after 4 passages to EC50 for antiviral activity against wild-type HIV1 3B; format: functional
# [13] = test system: Human immunodeficiency virus 1; assay: Selectivity ratio of EC50 for antiviral activity against GS-9160-resistant HIV1 selected after 8 passages to EC50 for antiviral activity against wild-type HIV1 3B; format: functional
# [14] = Cytotoxicity against human MT4 cells infected with HIV1 3B by three fold dilution method in presence of 10% FBS; format: cell-based; conditions: MT4 cells infected with HIV-1 3B
# [15] = test system: Human immunodeficiency virus 1; assay: Antiviral activity against HIV1 3B infected in human MT-2 cells by two fold dilution method in presence of 10% FBS; format: functional, organism-based; conditions: Human immunodeficiency virus 1, 3B, MT2
# [16] = test system: Human immunodeficiency virus 1; assay: Antiviral activity against HIV1 3B infected in human MT-4 cells by two fold dilution method in presence of 10% FBS; format: functional, organism-based; conditions: Human immunodeficiency virus 1, 3B, MT4
# [17] = Cytotoxicity against human uninfected MT2 cells by three fold dilution method in presence of 10% FBS
# [18] = test system: Human immunodeficiency virus 1; assay: Antiviral activity against HIV1 3B infected in human MT-2 cells by two fold dilution method in presence of 10% FBS, HSA and alpha1-AGP; format: functional, organism-based; conditions: Human immunodeficiency virus 1, 3B, MT2
# [19] = test system: Human immunodeficiency virus 1; assay: Selectivity ratio of EC50 for antiviral activity against HIV1 harboring E92Q mutation in catalytic core domain of integrase to EC50 for antiviral activity against wild-type HIV1 3B; format: functional
# [20] = test system: Human immunodeficiency virus 1; assay: Selectivity ratio of EC50 for antiviral activity against HIV1 harboring E138K and Q148K mutation in catalytic core domain of integrase to EC50 for antiviral activity against wild-type HIV1 3B; format: functional
# [21] = test system: Human immunodeficiency virus 1; assay: Selectivity ratio of EC50 for antiviral activity against HIV1 harboring E92V mutation in catalytic core domain of integrase to EC50 for antiviral activity against wild-type HIV1 3B; format: functional
# [22] = test system: Human immunodeficiency virus 1; assay: Selectivity ratio of EC50 for antiviral activity against HIV1 harboring L74M and E92V mutation in catalytic core domain of integrase to EC50 for antiviral activity against wild-type HIV1 3B; format: functional
# [23] = test system: Human immunodeficiency virus 1; assay: Selectivity ratio of EC50 for antiviral activity against NRTI-resistant HIV1 harboring RTK65R mutant gene to EC50 for antiviral activity against wild-type HIV1 3B; format: functional
# [24] = test system: Human immunodeficiency virus 1; assay: Selectivity ratio of EC50 for antiviral activity against PI-resistant HIV1 harboring […], V82A and L90M mutant gene to EC50 for antiviral activity against wild-type HIV1 3B; format: functional
# [25] = test system: Human immunodeficiency virus 1; assay: Selectivity ratio of EC50 for antiviral activity against HIV1 harboring T66I mutation in catalytic core domain of integrase to EC50 for antiviral activity against wild-type HIV1 3B; format: functional
# [26] = test system: Human immunodeficiency virus 1; assay: Selectivity ratio of EC50 for antiviral activity against HIV1 harboring L74M mutation in catalytic core domain of integrase to EC50 for antiviral activity against wild-type HIV1 3B; format: functional
# [27] = test system: Human immunodeficiency virus 1; assay: Selectivity ratio of EC50 for antiviral activity against HIV1 harboring E138K mutation in catalytic core domain of integrase to EC50 for antiviral activity against wild-type HIV1 3B; format: functional
# [28] = test system: Human immunodeficiency virus 1; assay: Selectivity ratio of EC50 for antiviral activity against HIV1 harboring Q148K mutation in catalytic core domain of integrase to EC50 for antiviral activity against wild-type HIV1 3B; format: functional
# [29] = test system: Human immunodeficiency virus 1; assay: Selectivity ratio of EC50 for antiviral activity against HIV1 harboring N155S mutation in catalytic core domain of integrase to EC50 for antiviral activity against wild-type HIV1 3B; format: functional
# [30] = test system: Human immunodeficiency virus 1; assay: Selectivity ratio of EC50 for antiviral activity against NRTI-resistant HIV1 harboring RT-6TAMs mutant gene to EC50 for antiviral activity against wild-type HIV1 3B; format: functional
# [31] = test system: Human immunodeficiency virus 1; assay: Selectivity ratio of EC50 for antiviral activity against NRTI-resistant HIV1 harboring RTM184V mutant gene to EC50 for antiviral activity against wild-type HIV1 3B; format: functional
# [32] = test system: Human immunodeficiency virus 1; assay: Selectivity ratio of EC50 for antiviral activity against HIV1 harboring E92V, G140S and V151A mutation in catalytic core domain of integrase to EC50 for antiviral activity against wild-type HIV1 3B; format: functional
# [33] = test system: Human immunodeficiency virus 1; assay: Selectivity ratio of EC50 for antiviral activity against PI-resistant HIV1 harboring […], L90M mutant gene to EC50 for antiviral activity against wild-type HIV1 3B; format: functional
# [34] = test system: Human immunodeficiency virus 1; assay: Selectivity ratio of EC50 for antiviral activity against NNRTI-resistant HIV1 harboring RTK103N mutant gene to EC50 for antiviral activity against wild-type HIV1 3B; format: functional
# [35] = test system: Human immunodeficiency virus 1; assay: Selectivity ratio of EC50 for antiviral activity against NNRTI-resistant HIV1 harboring RTY181C mutant gene to EC50 for antiviral activity against wild-type HIV1 3B; format: functional
# [36] = test system: Human immunodeficiency virus 1; assay: Selectivity ratio of EC50 for antiviral activity against HIV1 harboring G140S mutation in catalytic core domain of integrase to EC50 for antiviral activity against wild-type HIV1 3B; format: functional
# [37] = test system: Human immunodeficiency virus 1; assay: Selectivity ratio of EC50 for antiviral activity against HIV1 harboring N155H mutation in catalytic core domain of integrase to EC50 for antiviral activity against wild-type HIV1 3B; format: functional
# [38] = test system: Human immunodeficiency virus 1; assay: Selectivity ratio of EC50 for antiviral activity against HIV1 harboring V151A mutation in catalytic core domain of integrase to EC50 for antiviral activity against wild-type HIV1 3B; format: functional
# [39] = test system: Human immunodeficiency virus 1; assay: Selectivity ratio of EC50 for antiviral activity against HIV1 harboring E92V and V151A mutation in catalytic core domain of integrase to EC50 for antiviral activity against wild-type HIV1 3B; format: functional
# [40] = test system: Human immunodeficiency virus 1; assay: Selectivity ratio of EC50 for antiviral activity against HIV1 harboring G140S and Q148H mutation in catalytic core domain of integrase to EC50 for antiviral activity against wild-type HIV1 3B; format: functional
SMILES,EC50 [15],Ratio EC50 [19],Ratio EC50 [20],Ratio EC50 [21],Ratio EC50 [22],Ratio EC50 [23],Ratio EC50 [24],Ratio EC50 [25],Ratio EC50 [26],Ratio EC50 [27],Ratio EC50 [28],Ratio EC50 [29],Ratio EC50 [30],Ratio EC50 [31],Ratio EC50 [32],Ratio EC50 [33],Ratio EC50 [34],Ratio EC50 [35],Ratio EC50 [36],Ratio EC50 [37],other results
CC(C)CN(C[C@@H](O)[C@H](Cc1ccccc1)NC(=O)O[C@H]1CCOC1)S(=O)(=O)c1ccc(N)cc1,–,–,–,–,–,–,–,–,–,–,–,–,–,–,–,–,–,–,–,–,Ratio EC50 [1]: 1.2; Ratio EC50 [2]: 1.5; EC50 [3]: > 1000 nM; Ratio EC50 [4]: 1.5; CC50 [5]: 96 µM; EC50 [6]: > 1000 nM; Ratio EC50 [7]: 0.9; Ratio EC50 [8]: 8.7; Ratio EC50 [9]: 1.6; Ratio EC50 [10]: 3.4; Ratio EC50 [11]: 1; Ratio EC50 [12]: 1.6; Ratio EC50 [13]: 4
Cc1nnc(C(=O)NC(C)(C)c2nc(C(=O)NCc3ccc(F)cc3)c(O)c(=O)n2C)o1,3 nM,–,–,–,–,–,–,–,–,–,–,–,–,–,–,–,–,–,–,–,CC50 [14]: 58.2 µM; EC50 [16]: 8 nM; CC50 [17]: > 100 µM; EC50 [18]: 18 nM
CC(C)c1nc(COC(N)=O)n(Cc2ccncc2)c1Sc1cc(Cl)cc(Cl)c1 [CAPRAVIRINE],0.2 nM,1,3,3,3,0.4,1,2,1,3,1,6,762,1,3,1,0,89,2,6,Ratio EC50 [38]: 4; Ratio EC50 [39]: 2; Ratio EC50 [40]: 0.2
O=C1Nc2ccc(Cl)cc2[C@@](C#CC2CC2)(C(F)(F)F)O1 [EFAVIRENZ],6.8 nM,–,–,–,–,–,–,–,–,–,–,–,–,–,–,–,–,–,–,–,CC50 [5]: 15.5 µM
Nc1nc(=O)n([C@@H]2CS[C@H](CO)O2)cc1F [EMTRICITABINE],323 nM,2,2,1,2,26,1,1,1,1,2,3,23,>55,2,1,1,0.4,1,2,Ratio EC50 [38]: 3; Ratio EC50 [39]: 4; Ratio EC50 [40]: 0.8
Nc1ccn([C@@H]2CS[C@H](CO)O2)c(=O)n1 [LAMIVUDINE],–,–,–,–,–,–,–,–,–,–,–,–,–,–,–,–,–,–,–,–,Ratio EC50 [1]: 2; Ratio EC50 [2]: 1.4; Ratio EC50 [4]: 4.5; Ratio EC50 [7]: >272; Ratio EC50 [8]: 9; Ratio EC50 [9]: 1; Ratio EC50 [10]: 7; Ratio EC50 [11]: 1.8; Ratio EC50 [12]: >272; Ratio EC50 [13]: 5.7
Cc1cccc(C)c1OCC(=O)N[C@@H](Cc1ccccc1)[C@@H](O)C[C@H](Cc1ccccc1)NC(=O)[C@H](C(C)C)N1CCCNC1=O [LOPINAVIR],4.8 nM,1,1,1,1,3,9,4,1,1,1,2,5,3,2,29,1,1,1,2,Ratio EC50 [38]: 1; Ratio EC50 [39]: 1; Ratio EC50 [40]: 1
CC(C)OC(=O)OCOP(=O)(CO[C@H](C)Cn1cnc2c(N)ncnc21)OCOC(=O)OC(C)C.O=C(O)/C=C/C(=O)O [TENOFOVIR DISOPROXIL FUMARATE],6.8 nM,1,2,2,1,4,1,1,1,2,1,2,9,1,2,1,1,1,1,2,Ratio EC50 [38]: 2; Ratio EC50 [39]: 2; Ratio EC50 [40]: 0.3
